Consider three compounds from patent US6913882B2, “Methods of screening for B cell activity modulators” (Affymetrix, Inc., priority 1999, dated 2005).

SMILES strings stand for the structures. Where two headings read alike, the source gives them in different places.

In one data set the test system is Egr-1. Briefly: B cell activation with PD98059 titration, Egr-1 upregulation monitored on expression arrays. The class given is cell-based, mice. As for the experimental part:
(§1) Splenic B cells from non-transgenic, Ig^HEL or sHEL/Ig^HEL transgenic mice were purified at room temperature in 1% bovine calf serum in RPMI. The spleen cells were stained with CD4, CD8 and Mac-1 FITC conjugated antibodies (Caltag) and depleted of T cells and macrophages with sheep anti-FITC magnetic beads (Perseptive Biosystems). The remaining cells were 85-95% B220 positive and were either lysed immediately (naive and tolerant cell preps) or stimulated in RPMI with 1% serum at 37° C. at 2-3×10^6 cells/ml. For stimulation experiments, HEL (Sigma) was used at 500 ng/ml, goat anti-mu (Jackson Labs) at 10 μg/ml, FK506 at 10 ng/ml, PD98059 (NEB) at 20 μM unless stated otherwise, ionomycin at 1 μM and EGTA at 3 mM. Cells were preincubated for 45 minutes with PD98059, 15 minutes with FK506 and 2 minutes with EGTA before addition of HEL or anti-mu. Mock stimulations were performed by addition of carrier alone for stimuli or inhibitors. At the end of the incubation, the cells were pelleted by centrifugation, resuspended in a minimal volume of medium (about 50 μl) by pipetting and lysed in 0.5-1 ml Trizol (Gibco BRL).
Trizol lysates were phenol-extracted and precipitated with isopropanol. Poly A+ RNA was purified with Oligotex (Qiagen). cDNA was synthesised with a Superscriptll cDNA synthesis kit (Gibco BRL) using a T7:(dT)24 oligo to prime the first strand and purified by phenol extraction and ethanol precipitation. The cDNA was used as a template for in vitro transcription (IVT) using the Megascript system (Ambion) with the inclusion of biotinylated CTP and UTP. […]
An intensity for each gene was calculated based on a trimmed mean of the PM—MM values. […]
In addition to NFAT, the ERK pathway is also activated in foreign or self antigen-stimulated cells. To determine downstream transcriptional effects of ERK, the effect of MEK, an ERK kinase, on B cell activation was determined. The MEK inhibitor PD98059 was titrated in B cell activation experiments and gene expression was monitored using one of the four arrays in the set (approximately 1600 genes). […]

A further data set deals with early response genes. As to the kind of experiment: B cell activation (HEL or anti-mu, 1 hr) with FK506, EGTA or PD98059, early response gene expression on arrays. The class given is cell-based, mice. As for the experimental part:
as §1
Trizol lysates were phenol-extracted and precipitated with isopropanol. Poly A+ RNA was purified with Oligotex (Qiagen). cDNA was synthesised with a Superscriptll cDNA synthesis kit (Gibco BRL) using a T7:(dT)24 oligo to prime the first strand and purified by phenol extraction and ethanol precipitation. […]
Each gene on the arrays was tiled as a collection of approximately 20 probe pairs. […] The perfect match—mismatch intensities (PM—MM) were calculated for each probe pair for each gene in each experiment. […] Positive t values associated with a probability of less than 0.1 were scored as increased, negative t values with a probability of less than 0.1 were scored as decreased. The number of increased and decreased probe pairs associated with each gene was determined and called npos and nneg respectively (of the approximately 20 probe pairs tiled for each gene). […] The probability of scoring npos or more of the total number of probe pairs was determined. […]

The next data set has as its system B cell. As to the kind of experiment: B cell death on activation in the presence of FK506. In kind it is cell-based.

For the compound `COc1cccc(-c2cc(=O)c3ccccc3o2)c1N` [PD98059], in the data set with Egr-1 (20 μM PD98059), the “inhibition of upregulation of Egr-1” value was “totally inhibited”. Moreover, the IC50 with Egr-1 (B cell activation, PD98059 titrated, read-out: concentration at which upregulation of Egr-1 was 50% inhibited) is 5 to 10 µM; with Egr-1 (anti-mu stimulation of non-transgenic B cells, FIG. 3D, read-out: IC50 for inhibition of upregulation of Egr-1), approximately 5 µM. For the same compound, the “sensitivity of induction of three transcripts (Egr-1, NAB2 and Gfi-1) upregulated by both self and foreign antigen” value in the data set on early response genes (FIG. 3D (PD98059), FIG. 3A (FK506)) is “sensitive”. For the same compound, the “sensitivity of regulation of other early response genes relative to Egr-1” value in the data set with early response genes (PD98059 titration) is “less sensitive”.

Take `C=CC[C@@H]1/C=C(\C)C[C@H](C)C[C@H](OC)[C@H]2O[C@@](O)(C(=O)C(=O)N3CCCC[C@H]3C(=O)O[C@H](/C(C)=C/[C@@H]3CC[C@@H](O)[C@H](OC)C3)[C@H](C)[C@@H](O)CC1=O)[C@H](C)C[C@@H]2OC` [FK506]: the “B cell death on activation” value in the data set with B cell is “increased B cell death”.

Regarding `O=C(O)CN(CCOCCOCCN(CC(=O)O)CC(=O)O)CC(=O)O` [EGTA], the “effect on the transcript profile of stimulated naïve cells” value with early response genes (EGTA, FIG. 3C) is “essentially the same effect on the transcript profile as FK506”.
